Measurements taken from patent US11492335B2, “Aryl or heteroaryl triazolone derivatives or salts thereof, or pharmaceutical compositions comprising the same” (YUHAN CORPORATION, priority 2018, dated 2022).
Where a name gives a salt, the structure may show the parent alone. Read-outs that look alike come from different tables or passages of the source.

How the values were obtained:
Format in all cases: biochemical
[1] = target: T1, recombinant human MAO-A (monoamine oxidase-A) (Homo sapiens, UniProt P21397); test: Activity on recombinant human MAO-A, Amplex Red method, 0.5 mM tyramine substrate; conditions: read-out: Inhibitory Activity (IC50, nM) MAO-A
T1 construct: purchased Sigma-Aldrich
T1 sequence (P21397 1-527): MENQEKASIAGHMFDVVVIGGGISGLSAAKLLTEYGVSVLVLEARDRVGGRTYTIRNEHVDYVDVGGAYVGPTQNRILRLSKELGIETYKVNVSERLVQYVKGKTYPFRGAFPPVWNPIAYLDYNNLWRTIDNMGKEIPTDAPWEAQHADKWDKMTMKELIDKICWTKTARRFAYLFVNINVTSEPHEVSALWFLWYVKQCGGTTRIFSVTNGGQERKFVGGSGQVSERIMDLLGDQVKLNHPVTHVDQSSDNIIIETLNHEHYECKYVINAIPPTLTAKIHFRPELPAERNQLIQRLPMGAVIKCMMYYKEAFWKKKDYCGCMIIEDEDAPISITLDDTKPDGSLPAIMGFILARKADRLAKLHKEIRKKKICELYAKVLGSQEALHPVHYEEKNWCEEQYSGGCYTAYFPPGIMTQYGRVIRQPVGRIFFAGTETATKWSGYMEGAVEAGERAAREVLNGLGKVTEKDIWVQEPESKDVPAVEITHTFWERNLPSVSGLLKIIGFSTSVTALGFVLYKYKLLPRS
Procedure, shortened: (§1)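 Fluorescence (544/590 nm) of resorufin formed from Amplex Red by HRP and enzyme-generated H2O2 was followed over 1-2 h. Substrates were 0.5 mM tyramine for MAO-A and 1 mM benzylamine for MAO-B; compounds were preincubated with enzyme for 30 min at 37° C. IC50 came from four-parameter logistic fitting of signal-rate inhibition.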

[2] = target: T2, recombinant human MAO-B (monoamine oxidase-B) (Homo sapiens, UniProt P27338); test: Activity on recombinant human MAO-B, Amplex Red method, 1 mM benzylamine substrate; conditions: read-out: Inhibitory Activity (IC50, nM) MAO-B
T2 construct: purchased Sigma-Aldrich
T2 sequence (P27338 1-520): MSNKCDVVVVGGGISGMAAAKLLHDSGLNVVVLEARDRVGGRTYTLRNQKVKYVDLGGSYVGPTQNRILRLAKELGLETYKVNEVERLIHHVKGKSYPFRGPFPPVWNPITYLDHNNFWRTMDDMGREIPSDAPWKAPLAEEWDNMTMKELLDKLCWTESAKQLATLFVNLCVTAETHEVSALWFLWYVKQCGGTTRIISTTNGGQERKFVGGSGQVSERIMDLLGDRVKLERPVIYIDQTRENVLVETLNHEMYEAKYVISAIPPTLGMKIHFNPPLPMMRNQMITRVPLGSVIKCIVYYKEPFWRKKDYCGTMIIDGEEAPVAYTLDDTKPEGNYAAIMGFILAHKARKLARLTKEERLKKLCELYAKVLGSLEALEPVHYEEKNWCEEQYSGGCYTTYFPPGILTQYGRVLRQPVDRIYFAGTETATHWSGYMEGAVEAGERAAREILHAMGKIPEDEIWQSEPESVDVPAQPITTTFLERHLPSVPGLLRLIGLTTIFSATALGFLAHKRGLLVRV
Procedure, shortened: as §1

[3] = target: T3, recombinant human DAO (diamine oxidase) (Homo sapiens, UniProt P19801); test: Activity on recombinant human DAO, Amplex Red method, 1 mM putrescine substrate; conditions: recombinant human DAO, read-out: Inhibitory Activity (IC50, nM) DAO
T3 construct: purchased R&D systems
T3 sequence (P19801 20-751): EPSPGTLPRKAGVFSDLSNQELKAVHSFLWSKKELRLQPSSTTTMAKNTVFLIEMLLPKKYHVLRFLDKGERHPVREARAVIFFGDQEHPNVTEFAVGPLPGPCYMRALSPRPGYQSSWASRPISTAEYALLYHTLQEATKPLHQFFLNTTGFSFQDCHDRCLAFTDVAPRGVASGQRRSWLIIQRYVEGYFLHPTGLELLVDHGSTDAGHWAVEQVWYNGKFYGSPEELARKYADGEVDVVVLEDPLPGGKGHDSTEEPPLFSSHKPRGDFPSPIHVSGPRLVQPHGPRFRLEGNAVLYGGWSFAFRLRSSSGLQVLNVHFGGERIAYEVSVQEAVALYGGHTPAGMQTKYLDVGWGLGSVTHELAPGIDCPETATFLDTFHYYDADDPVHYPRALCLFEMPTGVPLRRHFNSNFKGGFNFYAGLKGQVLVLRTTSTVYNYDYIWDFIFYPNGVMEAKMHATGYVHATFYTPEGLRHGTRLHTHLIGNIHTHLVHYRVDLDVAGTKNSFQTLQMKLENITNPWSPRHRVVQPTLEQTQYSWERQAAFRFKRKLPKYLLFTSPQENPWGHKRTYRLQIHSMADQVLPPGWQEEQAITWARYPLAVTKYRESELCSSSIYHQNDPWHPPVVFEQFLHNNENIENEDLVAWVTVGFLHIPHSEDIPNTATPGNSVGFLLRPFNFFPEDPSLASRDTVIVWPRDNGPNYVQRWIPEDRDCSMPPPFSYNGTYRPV
Procedure, shortened: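 Inhibition of recombinant human DAO (diamine oxidase, R&D systems) was assessed with the Amplex Red Hydrogen Peroxide Assay Kit. Hydrogen peroxide produced from 1 mM putrescine was detected through an HRP-coupled reaction that converts Amplex Red into fluorescent resorufin, read at 544 nm excitation and 590 nm emission. IC50 values came from four-parameter logistic fits in GraphPad Prism.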

recombinant human VAP-1 = target: T4, recombinant human VAP-1 (Homo sapiens, UniProt Q16853); test: Activity on recombinant human VAP-1, Amplex Red HRP-coupled hydrogen peroxide assay, benzylamine substrate; conditions: recombinant human VAP-1, benzylamine substrate, read-out: Inhibitory Activity (IC50, nM) human VAP-1
T4 construct: purchased R&D systems
T4 sequence (Q16853 1-763): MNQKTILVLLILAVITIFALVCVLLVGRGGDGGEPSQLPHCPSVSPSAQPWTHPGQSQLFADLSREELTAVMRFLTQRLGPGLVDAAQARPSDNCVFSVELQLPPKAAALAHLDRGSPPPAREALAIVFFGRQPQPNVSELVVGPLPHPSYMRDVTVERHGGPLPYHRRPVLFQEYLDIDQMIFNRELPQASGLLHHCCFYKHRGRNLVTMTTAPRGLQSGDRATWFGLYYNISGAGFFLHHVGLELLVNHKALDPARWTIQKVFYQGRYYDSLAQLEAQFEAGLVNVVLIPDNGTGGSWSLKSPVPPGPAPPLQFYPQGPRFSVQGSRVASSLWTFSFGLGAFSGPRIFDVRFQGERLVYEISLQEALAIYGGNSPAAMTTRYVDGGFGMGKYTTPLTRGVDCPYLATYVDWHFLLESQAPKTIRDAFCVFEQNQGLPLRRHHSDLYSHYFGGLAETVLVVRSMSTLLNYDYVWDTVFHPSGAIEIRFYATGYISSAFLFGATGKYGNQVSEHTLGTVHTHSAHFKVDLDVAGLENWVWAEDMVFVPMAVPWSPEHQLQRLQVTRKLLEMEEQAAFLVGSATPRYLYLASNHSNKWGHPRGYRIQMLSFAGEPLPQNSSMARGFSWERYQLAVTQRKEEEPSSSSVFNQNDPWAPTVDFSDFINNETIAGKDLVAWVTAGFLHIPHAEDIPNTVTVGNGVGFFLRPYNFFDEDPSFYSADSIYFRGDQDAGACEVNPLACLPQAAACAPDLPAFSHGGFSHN
Procedure, shortened: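 Fluorescence of resorufin formed from H2O2 (ex 544 nm, em 590 nm) was tracked for 1-2 h after adding 1 mM benzylamine, 200 uM Amplex Red and 1 U/mL HRP to enzyme pretreated with compound for 30 min at 37 °C. IC50 values derive from four-variable logistic fits.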

[4] = 1 mM putrescine, * = between 10 and 100 nM, ** = between 300 and 1000 nM

| SMILES | IC50 ([1]; 0.5 mM tyramine substrate) | IC50 ([2]; 1 mM benzylamine substrate) | IC50 ([3]; 1 mM putrescine substrate) | IC50 (recombinant human VAP-1) | IC50 ([1]; 0.5 mM tyramine) | IC50 ([2]; 1 mM benzylamine) | IC50 [3, 4] | IC50 (recombinant human VAP-1; 30 min preincubation at 37° C.) | IC50 ([3]; 1 mM putrescine substrate, bound qualified by footnote * / **) |
| --- | --- | --- | --- | --- | --- | --- | --- | --- | --- |
| Cc1cc(-n2cnn(C/C(=C/F)CN)c2=O)ncc1-c1ccc(-c2nc[nH]n2)cc1 [Example 157, 2-[(2E)-2-(aminomethyl)-3-fluoroprop-2-en-1-yl]-4-{4-methyl-5-[4-(1H-1,2,4-triazol-3-yl)phenyl]pyridin-2-yl}-2,4-dihydro-3H-1,2,4-triazol-3-one] | > 100000 nM | 3790 nM | < 100 nM | 0.3 nM |  |  |  |  |  |
| NC/C(=C\F)Cn1ncn(-c2cccc(-c3cccc(-c4ncon4)c3)c2)c1=O [Example 62, 2-[(2E)-2-(aminomethyl)-3-fluoroprop-2-en-1-yl]-4-[3′-(1,2,4-oxadiazol-3-yl)biphenyl-3-yl]-2,4-dihydro-3H-1,2,4-triazol-3-one] |  |  |  |  | > 100000 nM | 117 nM | < 100 nM | 0.53 nM |  |
| Cc1ccc(-c2cc(C)c3c(c2)CCC(=O)N3)nc1-n1cnn(C/C(=C/F)CN)c1=O [Example 215, 6-(6-{1-[(2E)-2-(aminomethyl)-3-fluoroprop-2-en-1-yl]-5-oxo-1,5-dihydro-4H-1,2,4-triazol-4-yl}-5-methylpyridin-2-yl)-8-methyl-3,4-dihydroquinolin-2(1H)-one hydrochloride] | 96000 nM | 3500 nM | 290 nM | 14 nM |  |  |  |  |  |
| NC/C(=C\F)Cn1ncn(-c2cc(-c3ccc(N4CCOCC4)nc3)ccn2)c1=O [Example 169, 2-[(2E)-2-(aminomethyl)-3-fluoroprop-2-en-1-yl]-4-[6-(morpholin-4-yl)-3,4′-bipyridin-2′-yl]-2,4-dihydro-3H-1,2,4-triazol-3-one] | > 100000 nM | > 10000 nM | < 30 nM | 0.28 nM |  |  |  |  |  |
| Cc1cc(-c2ccc3c(c2)NC(=O)C3)cnc1-n1cnn(C/C(=C/F)CN)c1=O [Example 151, 6-(6-{1-[(2E)-2-(aminomethyl)-3-fluoroprop-2-en-1-yl]-5-oxo-1,5-dihydro-4H-1,2,4-triazol-4-yl}-5-methylpyridin-3-yl)-1,3-dihydro-2H-indol-2-one] | > 10000 nM | > 10000 nM | 98 nM | 0.52 nM |  |  |  |  |  |
| CN(C)c1ccc(C#Cc2cccc(-n3cnn(C/C(=C/F)CN)c3=O)n2)cn1 [Example 248, 2-[(E)-2-(aminomethyl)-3-fluoro-allyl]-4-[6-[2-[6-(dimethylamino)-3-pyridyl]ethynyl]-2-pyridyl]-1,2,4-triazol-3-one] | > 100000 nM | > 10000 nM | 36 nM | 0.5 nM |  |  |  |  |  |
| COc1cc(-c2cccc(-n3cnn(C/C(=C/F)CN)c3=O)c2)ccn1 [Example 79, 2-[(2E)-2-(aminomethyl)-3-fluoroprop-2-en-1-yl]-4-[3-(2-methoxypyridin-4-yl)phenyl]-2,4-dihydro-3H-1,2,4-triazol-3-one hydrochloride] |  |  |  |  | > 100000 nM | 7900 nM | 2.2 nM | 0.47 nM |  |
| CN(C)c1ccc(-c2cccc(-n3cnn(C/C(=C/F)CN)c3=O)c2)cc1 [Example 51, 2-[(2E)-2-(aminomethyl)-3-fluoroprop-2-en-1-yl]-4-[4′-(dimethylamino)biphenyl-3-yl]-2,4-dihydro-3H-1,2,4-triazol-3-one hydrochloride] |  |  |  |  | > 100000 nM | 5600 nM | > 10000 nM | 2 nM |  |
| NC/C(=C\F)Cn1ncn(-c2ncc(Br)s2)c1=O [Example 41, 2-[(2E)-2-(aminomethyl)-3-fluoroprop-2-en-1-yl]-4-(5-bromo-1,3-thiazol-2-yl)-2,4-dihydro-3H-1,2,4-triazol-3-one hydrochloride] |  |  |  |  | 780 nM | 174 nM | 17 nM | 0.6 nM |  |
| NC/C(=C\F)Cn1ncn(-c2cc(-c3ccc4c(c3)OCO4)ccn2)c1=O [Example 170, 2-[(2E)-2-(aminomethyl)-3-fluoroprop-2-en-1-yl]-4-[4-(1,3-benzodioxol-5-yl)pyridin-2-yl]-2,4-dihydro-3H-1,2,4-triazol-3-one] | > 100000 nM | 235 nM |  | 0.74 nM |  |  |  |  | < 100 nM |
